# Values quoted from earlier work as cited in US20200221696A1, “ACTIVE […] FORMULATION FOR I[…] AND OBTAINED PAINT” (priority 2018, published 2020).
# “Also recorded” adds a separate entry of the source. Where two headings read alike, the source gives them in different places.
# Conditions: aqueous medium; for Decomposition time (Mean life): stability in words: pH
Compound,Decomposition time (Mean life): stability in words,Decomposition time (Mean life) (pH 9),other results
CCOP(=S)(OCC)Oc1nc(Cl)c(Cl)cc1Cl [Chlorpyrifos],Stable in neutral and slightly acid,–,Decomposition time (Mean life) (pH 10): 7 days
CC1(C)C(C=C(Cl)Cl)C1C(=O)OC(C#N)c1cccc(Oc2ccccc2)c1 (centres unmarked) [Cypermethrin],–,7 days,–
C=CCC1=C(C)C(OC(=O)C2C(C=C(C)C)C2(C)C)CC1=O [D-allethrin],Stable at pH 5 after 31 days,(4.3 days),Decomposition time (Mean life) (pH 7): 500 days
CC1(C)[C@H](C(=O)O[C@H](C#N)c2cccc(Oc3ccccc3)c2)[C@@H]1C=C(Br)Br [Deltamethrin],more stable in medium acid solutions,–,Decomposition time (Mean life) (pH 7): 0.33 days
CCOP(=S)(OCC)Oc1cc(C)nc(C(C)C)n1 [Diazinon],–,136 days,Decomposition time (Mean life) (pH 5): 31 days; Decomposition time (Mean life) (pH 7.5): 185 days
O=C(NC(=O)c1c(F)cccc1F)Nc1ccc(Cl)cc1 [Diflubenzuron],Stable in a pH range from 5 to 7; also recorded: Hydrolyzed at pH 9,–,–
CCOC(=O)CC(SP(=S)(OC)OC)C(=O)OCC (centres unmarked) [Malathion],Quickly hydrolyzed at pH over 7. The optimal pH,–,–
CC1(C)C(C=C(Cl)Cl)C1C(=O)OCc1cccc(Oc2ccccc2)c1 (centres unmarked) [Permethrin],Stable at pH between 5 and 6.,–,–
CCN(CC)c1nc(C)cc(OP(=S)(OC)OC)n1 [Pirimiphos-methyl],–,–,Decomposition time (Mean life) (pH 5): 7 days; Decomposition time (Mean life) (pH 8): 5 days
CC(COc1ccc(Oc2ccccc2)cc1)Oc1ccccn1 (centres unmarked) [Pyriproxifen],Stable in pH between 4 and 9.,–,–
